The target in experiment [1] is Serine/threonine-protein kinase 26 (Homo sapiens, UniProt Q9P289). The settings on record: PBMC, at 1 µM.
For experiment [2], the target named is Cysteinyl leukotriene receptor 1 (Homo sapiens) (UniProt Q9Y271). Put plainly: Selectivity interaction (Eurofins CEREP Diversity Profile (receptors and ion channels)) EUB0000279b CYSLTR1. The settings on record: at 10 µM.
For experiment [3], the target named is Cyclin-dependent kinase 16 (Homo sapiens) (UniProt Q00536). The settings on record: at 10 µM.
Chain of Cyclin-dependent kinase 16 (Homo sapiens) (Q00536 whole entry): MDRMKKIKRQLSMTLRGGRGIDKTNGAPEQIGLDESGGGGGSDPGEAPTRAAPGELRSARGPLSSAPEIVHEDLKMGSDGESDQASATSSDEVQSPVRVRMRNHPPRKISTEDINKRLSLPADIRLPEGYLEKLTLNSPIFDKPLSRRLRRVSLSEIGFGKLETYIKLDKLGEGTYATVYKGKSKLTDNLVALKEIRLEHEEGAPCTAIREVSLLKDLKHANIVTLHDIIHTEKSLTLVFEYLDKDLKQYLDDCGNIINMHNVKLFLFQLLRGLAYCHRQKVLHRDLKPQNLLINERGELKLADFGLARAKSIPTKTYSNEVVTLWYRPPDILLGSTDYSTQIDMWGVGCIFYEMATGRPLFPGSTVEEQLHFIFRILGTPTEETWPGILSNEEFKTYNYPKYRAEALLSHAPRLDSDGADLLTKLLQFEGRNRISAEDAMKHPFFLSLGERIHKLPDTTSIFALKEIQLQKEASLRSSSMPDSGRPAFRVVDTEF
For experiment [4], the target named is Serine/threonine-protein kinase PLK1 (Homo sapiens, UniProt P53350). Put plainly: Selectivity interaction (KinomeScan (DiscoverX)) EUB0000607a PLK1. To be noted: at 10 µM.
Chain of Serine/threonine-protein kinase PLK1 (P53350 whole entry): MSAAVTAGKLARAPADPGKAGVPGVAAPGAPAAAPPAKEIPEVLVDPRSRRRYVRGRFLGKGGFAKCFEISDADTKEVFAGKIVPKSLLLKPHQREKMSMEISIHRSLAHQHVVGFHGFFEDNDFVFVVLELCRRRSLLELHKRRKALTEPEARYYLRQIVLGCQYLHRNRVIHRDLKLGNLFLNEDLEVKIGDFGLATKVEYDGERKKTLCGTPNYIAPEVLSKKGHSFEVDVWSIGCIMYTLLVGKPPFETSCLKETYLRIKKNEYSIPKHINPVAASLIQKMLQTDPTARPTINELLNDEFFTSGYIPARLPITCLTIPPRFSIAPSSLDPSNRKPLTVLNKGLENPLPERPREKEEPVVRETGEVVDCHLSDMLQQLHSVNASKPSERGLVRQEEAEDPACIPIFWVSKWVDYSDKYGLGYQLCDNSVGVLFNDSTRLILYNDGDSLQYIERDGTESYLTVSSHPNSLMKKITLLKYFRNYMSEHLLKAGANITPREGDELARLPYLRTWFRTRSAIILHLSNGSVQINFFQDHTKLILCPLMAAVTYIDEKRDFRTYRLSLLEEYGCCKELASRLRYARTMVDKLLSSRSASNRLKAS
For experiment [5], the target named is Tyrosine-protein kinase Fes/Fps (Homo sapiens) (UniProt P07332). To be noted: at 10 µM.
Chain of Tyrosine-protein kinase Fes/Fps (Homo sapiens) (P07332 whole entry): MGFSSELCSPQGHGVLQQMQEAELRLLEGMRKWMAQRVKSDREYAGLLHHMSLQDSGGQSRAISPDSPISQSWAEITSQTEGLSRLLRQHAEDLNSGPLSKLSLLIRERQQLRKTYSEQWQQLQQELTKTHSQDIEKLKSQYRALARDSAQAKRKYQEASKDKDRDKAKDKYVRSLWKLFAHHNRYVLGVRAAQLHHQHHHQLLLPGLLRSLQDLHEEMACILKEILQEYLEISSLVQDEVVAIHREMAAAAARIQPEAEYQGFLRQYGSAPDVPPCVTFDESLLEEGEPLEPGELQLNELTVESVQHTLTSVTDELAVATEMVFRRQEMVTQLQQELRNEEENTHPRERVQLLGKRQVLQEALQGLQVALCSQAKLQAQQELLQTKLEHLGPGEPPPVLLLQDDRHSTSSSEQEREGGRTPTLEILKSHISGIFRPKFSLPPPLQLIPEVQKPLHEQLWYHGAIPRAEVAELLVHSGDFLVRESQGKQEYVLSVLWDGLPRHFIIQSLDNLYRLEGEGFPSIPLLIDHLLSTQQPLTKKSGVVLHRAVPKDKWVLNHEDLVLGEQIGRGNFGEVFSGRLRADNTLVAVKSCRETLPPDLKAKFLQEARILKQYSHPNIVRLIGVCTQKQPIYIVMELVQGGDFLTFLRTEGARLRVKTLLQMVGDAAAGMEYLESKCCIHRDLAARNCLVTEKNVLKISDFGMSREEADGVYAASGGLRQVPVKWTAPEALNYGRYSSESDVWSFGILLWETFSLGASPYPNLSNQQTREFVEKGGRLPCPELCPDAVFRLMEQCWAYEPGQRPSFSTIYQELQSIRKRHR
For experiment [6], the target named is Cyclin-dependent kinase 16 (Homo sapiens) (UniProt Q00536). The settings on record: at 10 µM. The source holds these as a separate data set.
Experiment [7] deals with Cyclin-dependent kinase 14 (Homo sapiens) (UniProt O94921). Put plainly: Selectivity interaction (ActivX KiNativ screen (kinase selectivity in THP-1 cell lysates)) EUB0000639a CDK14. It counts as subcellular. The settings on record: lysate, at 1 µM.
Experiment [8] deals with T1, Tyrosine-protein kinase ZAP-70 (Homo sapiens) (UniProt P43403).
T1 sequence (whole entry): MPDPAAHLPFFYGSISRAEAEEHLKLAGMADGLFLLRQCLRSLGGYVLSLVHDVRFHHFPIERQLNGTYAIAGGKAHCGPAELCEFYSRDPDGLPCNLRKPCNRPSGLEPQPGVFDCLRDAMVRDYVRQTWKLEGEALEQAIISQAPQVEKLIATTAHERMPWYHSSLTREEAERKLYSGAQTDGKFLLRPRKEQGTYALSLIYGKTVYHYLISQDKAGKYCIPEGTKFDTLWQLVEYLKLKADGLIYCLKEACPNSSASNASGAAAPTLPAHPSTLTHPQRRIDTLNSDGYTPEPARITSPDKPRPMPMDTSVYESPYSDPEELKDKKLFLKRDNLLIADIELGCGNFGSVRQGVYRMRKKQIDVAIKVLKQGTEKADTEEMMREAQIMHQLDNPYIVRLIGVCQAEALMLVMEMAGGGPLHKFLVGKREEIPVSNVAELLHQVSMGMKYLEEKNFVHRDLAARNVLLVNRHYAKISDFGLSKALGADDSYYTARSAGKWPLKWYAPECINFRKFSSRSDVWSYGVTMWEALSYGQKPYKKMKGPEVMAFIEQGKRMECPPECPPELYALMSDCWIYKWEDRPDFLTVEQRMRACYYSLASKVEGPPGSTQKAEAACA
Put plainly: Selectivity interaction (KinomeScan (DiscoverX)) EUB0000045b ZAP70. The settings on record: at 1 µM.

The target in experiment [9] is Death-associated protein kinase 1 (Homo sapiens, UniProt P53355). Put plainly: Selectivity interaction (ProQinase) EUB0000171b DAPK1.
Chain of Death-associated protein kinase 1 (P53355 whole entry, looked up, the tested form may be a part): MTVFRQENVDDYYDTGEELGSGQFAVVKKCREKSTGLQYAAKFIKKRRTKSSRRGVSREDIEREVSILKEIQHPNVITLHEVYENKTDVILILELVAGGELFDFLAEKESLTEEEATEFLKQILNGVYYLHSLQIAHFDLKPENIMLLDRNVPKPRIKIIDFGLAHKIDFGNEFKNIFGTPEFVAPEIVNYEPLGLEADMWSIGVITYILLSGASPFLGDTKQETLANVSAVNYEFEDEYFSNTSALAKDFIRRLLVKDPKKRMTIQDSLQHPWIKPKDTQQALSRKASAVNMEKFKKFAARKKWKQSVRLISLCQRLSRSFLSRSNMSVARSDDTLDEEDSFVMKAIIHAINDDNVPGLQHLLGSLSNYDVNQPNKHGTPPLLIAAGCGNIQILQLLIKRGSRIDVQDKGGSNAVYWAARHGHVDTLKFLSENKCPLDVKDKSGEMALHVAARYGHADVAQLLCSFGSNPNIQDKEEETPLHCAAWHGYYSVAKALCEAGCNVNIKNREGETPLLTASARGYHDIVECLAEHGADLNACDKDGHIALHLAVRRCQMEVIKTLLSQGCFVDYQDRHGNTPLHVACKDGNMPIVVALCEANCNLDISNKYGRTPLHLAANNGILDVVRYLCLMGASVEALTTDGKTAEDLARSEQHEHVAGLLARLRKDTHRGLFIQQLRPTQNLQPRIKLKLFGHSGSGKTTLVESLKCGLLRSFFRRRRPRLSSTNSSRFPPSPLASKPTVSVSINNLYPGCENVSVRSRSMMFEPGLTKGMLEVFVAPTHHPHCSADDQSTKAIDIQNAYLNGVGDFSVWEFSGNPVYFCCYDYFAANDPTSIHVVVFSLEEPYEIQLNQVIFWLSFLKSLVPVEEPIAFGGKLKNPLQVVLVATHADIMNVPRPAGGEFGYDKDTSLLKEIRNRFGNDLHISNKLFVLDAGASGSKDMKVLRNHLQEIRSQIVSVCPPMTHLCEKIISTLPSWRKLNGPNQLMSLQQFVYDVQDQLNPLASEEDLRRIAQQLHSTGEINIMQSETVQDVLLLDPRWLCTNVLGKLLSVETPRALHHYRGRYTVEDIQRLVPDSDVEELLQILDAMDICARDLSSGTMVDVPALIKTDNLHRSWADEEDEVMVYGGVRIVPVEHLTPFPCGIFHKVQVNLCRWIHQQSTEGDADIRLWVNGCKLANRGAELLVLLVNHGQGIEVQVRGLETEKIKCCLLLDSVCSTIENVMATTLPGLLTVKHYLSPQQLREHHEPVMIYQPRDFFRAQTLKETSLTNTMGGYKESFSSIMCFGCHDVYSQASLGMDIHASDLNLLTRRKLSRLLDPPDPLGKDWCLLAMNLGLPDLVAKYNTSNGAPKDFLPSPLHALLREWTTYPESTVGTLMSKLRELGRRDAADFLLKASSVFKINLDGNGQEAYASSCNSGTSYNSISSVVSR
In experiment [10] the target is LIM domain kinase 2 (Homo sapiens) (UniProt P53671). Put plainly: Selectivity interaction (KinomeScan (DiscoverX)) EUB0001049a LIMK2. The settings on record: at 1 µM.
The target in experiment [11] is Tyrosine-protein kinase Fer (Homo sapiens) (UniProt P16591). Put plainly: Selectivity interaction (KinomeScan (DiscoverX)) EUB0001049a FER. The settings on record: at 1 µM.
For experiment [12], the target named is Tyrosine-protein kinase Fgr (Homo sapiens) (UniProt P09769). Put plainly: Selectivity interaction (KinomeScan (DiscoverX)) EUB0000655a FGR. To be noted: at 10 µM.
Chain of Tyrosine-protein kinase Fgr (Homo sapiens) (P09769 2-529 limits assumed): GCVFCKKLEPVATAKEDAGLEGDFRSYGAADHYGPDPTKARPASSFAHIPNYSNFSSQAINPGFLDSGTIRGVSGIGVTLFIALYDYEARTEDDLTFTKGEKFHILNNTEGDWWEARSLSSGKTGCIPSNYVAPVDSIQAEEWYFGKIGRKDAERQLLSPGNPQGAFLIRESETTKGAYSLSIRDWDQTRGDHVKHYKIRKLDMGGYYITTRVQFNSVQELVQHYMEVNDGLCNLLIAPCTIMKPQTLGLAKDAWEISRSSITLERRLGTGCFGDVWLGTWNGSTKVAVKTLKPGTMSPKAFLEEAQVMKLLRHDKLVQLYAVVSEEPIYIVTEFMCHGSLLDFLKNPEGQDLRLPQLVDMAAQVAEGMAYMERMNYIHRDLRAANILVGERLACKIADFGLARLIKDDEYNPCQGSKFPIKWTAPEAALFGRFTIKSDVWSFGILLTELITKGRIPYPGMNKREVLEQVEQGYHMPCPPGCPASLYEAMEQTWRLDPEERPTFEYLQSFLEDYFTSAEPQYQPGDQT
Experiment [13] has as its target T2, Megakaryocyte-associated tyrosine-protein kinase (Homo sapiens) (UniProt P42679).
T2 sequence (whole entry): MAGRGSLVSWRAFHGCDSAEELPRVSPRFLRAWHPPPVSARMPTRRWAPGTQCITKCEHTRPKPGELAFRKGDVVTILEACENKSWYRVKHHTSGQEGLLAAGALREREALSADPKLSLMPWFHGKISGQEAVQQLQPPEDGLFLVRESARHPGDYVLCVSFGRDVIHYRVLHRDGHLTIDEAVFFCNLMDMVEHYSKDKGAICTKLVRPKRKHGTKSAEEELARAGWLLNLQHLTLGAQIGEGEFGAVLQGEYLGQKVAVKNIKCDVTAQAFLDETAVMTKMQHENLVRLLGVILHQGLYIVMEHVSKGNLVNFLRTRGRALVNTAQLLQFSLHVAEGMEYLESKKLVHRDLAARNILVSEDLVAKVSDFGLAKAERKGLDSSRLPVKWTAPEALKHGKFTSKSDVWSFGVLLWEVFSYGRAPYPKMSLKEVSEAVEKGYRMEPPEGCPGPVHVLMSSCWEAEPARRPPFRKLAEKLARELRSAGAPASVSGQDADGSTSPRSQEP
Put plainly: Selectivity interaction (KinomeScan (DiscoverX)) EUB0000092b MATK. The settings on record: at 10 µM.

Experiment [14] deals with Cyclin-dependent kinase 15 (Homo sapiens) (UniProt Q96Q40). Put plainly: Selectivity interaction (KinomeScan (DiscoverX)) EUB0001079a CDK15. To be noted: at 1 µM.
Chain of Cyclin-dependent kinase 15 (Homo sapiens) (Q96Q40 whole entry): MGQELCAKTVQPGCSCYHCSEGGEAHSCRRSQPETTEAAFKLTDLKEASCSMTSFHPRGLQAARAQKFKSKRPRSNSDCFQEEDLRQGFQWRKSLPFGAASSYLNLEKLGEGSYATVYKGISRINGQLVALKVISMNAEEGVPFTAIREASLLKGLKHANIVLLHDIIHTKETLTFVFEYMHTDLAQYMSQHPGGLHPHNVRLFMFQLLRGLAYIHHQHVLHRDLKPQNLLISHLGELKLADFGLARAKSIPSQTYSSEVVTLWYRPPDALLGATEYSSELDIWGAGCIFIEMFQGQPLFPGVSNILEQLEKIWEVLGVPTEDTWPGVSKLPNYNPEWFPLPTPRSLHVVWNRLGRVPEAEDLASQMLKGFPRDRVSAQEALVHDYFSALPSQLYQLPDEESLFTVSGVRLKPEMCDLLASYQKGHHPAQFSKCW
Experiment [15] concerns the target Mitogen-activated protein kinase 7 (Homo sapiens) (UniProt Q13164). Put plainly: Selectivity interaction (KinomeScan (DiscoverX)) EUB0001079a MAPK7. To be noted: at 1 µM.
The target of experiment [16] is D(2) dopamine receptor (Homo sapiens, UniProt P14416). Put plainly: Selectivity interaction (GPCR panel (PDSP screen)) EUB0001079a DRD2. The settings on record: at 10 µM.
In experiment [17] the target is T3, Serine/threonine-protein kinase tousled-like 1 (Homo sapiens) (UniProt Q9UKI8).
T3 sequence (whole entry): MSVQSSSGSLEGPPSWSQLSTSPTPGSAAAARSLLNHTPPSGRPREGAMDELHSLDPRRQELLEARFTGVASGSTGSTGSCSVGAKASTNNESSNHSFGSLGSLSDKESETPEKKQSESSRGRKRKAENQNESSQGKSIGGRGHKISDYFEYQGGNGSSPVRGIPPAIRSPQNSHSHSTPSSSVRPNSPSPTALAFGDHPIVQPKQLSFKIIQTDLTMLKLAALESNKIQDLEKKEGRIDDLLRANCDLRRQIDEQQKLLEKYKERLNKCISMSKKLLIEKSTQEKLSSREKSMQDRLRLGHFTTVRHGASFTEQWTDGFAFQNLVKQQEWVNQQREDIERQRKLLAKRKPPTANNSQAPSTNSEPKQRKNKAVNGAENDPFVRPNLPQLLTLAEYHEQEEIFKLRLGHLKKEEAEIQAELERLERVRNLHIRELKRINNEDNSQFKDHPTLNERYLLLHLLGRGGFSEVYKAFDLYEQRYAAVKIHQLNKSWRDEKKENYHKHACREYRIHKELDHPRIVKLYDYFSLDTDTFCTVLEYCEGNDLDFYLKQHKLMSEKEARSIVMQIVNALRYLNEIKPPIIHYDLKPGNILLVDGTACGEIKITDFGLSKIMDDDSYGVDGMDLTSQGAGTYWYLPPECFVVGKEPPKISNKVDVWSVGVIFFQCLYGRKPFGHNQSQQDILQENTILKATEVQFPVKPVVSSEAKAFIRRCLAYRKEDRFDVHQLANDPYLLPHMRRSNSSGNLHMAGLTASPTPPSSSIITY
Put plainly: Selectivity interaction (KinomeScan (DiscoverX)) EUB0000229b TLK1. To be noted: at 10 µM.

Chain of Cysteinyl leukotriene receptor 1 (Homo sapiens) (Q9Y271 whole entry): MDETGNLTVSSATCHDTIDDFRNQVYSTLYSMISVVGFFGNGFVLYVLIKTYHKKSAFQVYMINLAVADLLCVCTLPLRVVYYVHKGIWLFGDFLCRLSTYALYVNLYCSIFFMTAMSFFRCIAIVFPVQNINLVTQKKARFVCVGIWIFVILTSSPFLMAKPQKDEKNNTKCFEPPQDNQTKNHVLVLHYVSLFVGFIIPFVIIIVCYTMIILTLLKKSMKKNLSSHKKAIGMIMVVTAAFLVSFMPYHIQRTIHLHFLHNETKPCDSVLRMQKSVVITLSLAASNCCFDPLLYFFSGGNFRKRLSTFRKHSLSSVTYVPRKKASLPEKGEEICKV

As for `N#Cc1cccc(-c2c[nH]c3ncnc(N4CCOCC4)c23)c1`, the % of inhibition in experiment [1] was determined as 65%.
The compound `CC(=O)c1cc(-c2ccccc2OCC2CC2)c2ncccn12` showed a % of control in [2] of 103%.
The compound `CCN(CC)CCCCNc1ncc2cc(-c3cc(OC)cc(OC)c3)c(NC(=O)NC(C)(C)C)nc2n1` yielded a % of control in experiment [3] of 100%.
In experiment [4], `CNC(=O)Nc1ccc(-c2nc(N3CC4CCC(C3)O4)c3cnn(C4CCC5(CC4)OCCO5)c3n2)cc1` had a % of control of 77%.
In the case of `Cc1cc([C@@H](C)Nc2ccccc2C(=O)O)c2nc(N3CCOCC3)cc(=O)n2c1` [AZD-6482], the % of control in experiment [5] amounted to 94%; in experiment [6], 100%.
With `CC[C@@H]1[C@H](F)C(=O)N[C@@H]1COc1nccc2cc(C(N)=O)c(OC)cc12` [ZIMLOVISERTIB], the % of inhibition in [7] is 1.6%.
In turn, `C=CC(=O)Nc1cc(-n2c(=O)ccc3cnc4ccc(-c5ccc(NS(C)(=O)=O)cc5)cc4c32)ccc1C` gave a % of control in experiment [8] of 91%.
`C=CC(=O)Nc1cccc(C(=O)Nc2ccc(Nc3cc(-c4[nH]c(SC)nc4C)ccn3)cc2)c1`: the % of control in [9] (at 1 µM) worked out at 100%; in [9] (at 5 µM) it was 94%.
On to `COc1cc(Nc2nc(C)cc(-c3cnn4nc(OC)ccc34)n2)cc(C(F)(F)F)c1`, for which the results for the % of control in experiment [10] and in [11] were 92% and 93%, respectively.
The compound `CN(C)CCOc1ccc(-c2nc(-c3ccncc3)c(-c3ccc4c(c3)CC/C4=N\O)[nH]2)cc1` came in with a % of control in experiment [12] of 87%.
As to `CCC(=O)N1CCN(c2ccc(-n3c(=O)ccc4cnc5ccc(-c6cnc7ccccc7c6)cc5c43)cc2C(F)(F)F)CC1`, the % of control in experiment [13] was 97%.
With `Nc1cnc(N2CCc3cc(S(=O)(=O)Nc4c(F)cc(Cl)cc4F)cc(N4CCCC4=O)c32)nc1` [TP-020n], the % of control in experiment [14] came out at 80%; in experiment [15], 100%. Besides, the % of inhibition in experiment [16] was -0.42%.
In experiment [17], `COc1cc(N(C)c2ccnc3ccc(C(F)(F)F)cc23)cc(OC)c1OC` came in with a % binding of 97%.

Values taken from ChEMBL document CHEMBL5465560, “Selectivity Literature for EUbOPEN Chemogenomic Library” (2024).
